Laboratory results as given in a melting point compilation (Tetko et al.).

Settings: a range is the spread between reports

First: c1ccc(CNCCNCc2ccccc2)cc1
Second: c1ccc(CN(Cc2ccccc2)Cc2ccccc2)cc1
The melting point of the first is lower: 24 to 26 °C for the first, 91.5 to 93 °C for the second.

First: O=C(c1ccccc1)c1cccc(Br)c1
Second: O=C(c1ccccc1)c1ccncc1
The melting point of the first is higher: 76 to 81 °C for the first, 70 to 72 °C for the second.

First: O=[N+]([O-])c1ccc(I)cc1
Second: O=[N+]([O-])c1ccc(F)cc1
The melting point of the first is higher: 173 to 176 °C for the first, 21 to 23 °C for the second.

Compared with `CC=CC(C)CC` (configuration not stated), `C#CC(C)C` is higher in melting point: -126 °C for the first, -90 to -89.7 °C for the second.

Compared with `CC(=O)c1ccc(I)cc1`, `CC(=O)c1ccc(OCC(=O)O)cc1` is higher in melting point: 83 to 86 °C for the first, 173 to 176 °C for the second.

First: COc1ccc(C(=O)O)cc1
Second: COC(=O)c1ccc(N)cc1
The melting point of the first is higher: 184 to 185 °C for the first, 110 to 114 °C for the second.

First: OCC(F)(F)C(F)(F)C(F)(F)CO
Second: O=C(O)C(F)(F)Cl
The melting point of the first is higher: 78 to 79.5 °C for the first, 22 to 25 °C for the second.

First: C1=CCCCCCC1
Second: CC1=CCCCC1
The melting point of the first is higher: -16 to -12 °C for the first, -120 °C for the second.

Compared with `Cc1cccc([N+](=O)[O-])c1N`, `O=C(O)c1cccc([N+](=O)[O-])c1Cl` is higher in melting point: 95 to 96 °C for the first, 181 to 184 °C for the second.

First: OCCCCCCCO
Second: OCCCCCO
The melting point of the first is higher: 18 to 22.5 °C for the first, -18 to -16 °C for the second.

First: O=S(=O)(Cl)Cl
Second: O=C1C(Cl)=CC(=NCl)C=C1Cl
The melting point of the first is lower: -54.1 to -54 °C for the first, 66 to 67 °C for the second.

Compared with `Brc1cc(Br)c(Br)cc1Br`, `Brc1ccc(Br)c(Br)c1` is lower in melting point: 178 to 182 °C for the first, 42 to 44.5 °C for the second.

Compared with `CC(CCC(=O)O)(c1ccc(O)cc1)c1ccc(O)cc1`, `O=C(O)Cc1ccc(C(F)(F)F)cc1` is lower in melting point: 172 to 173 °C for the first, 80 to 84 °C for the second.

First: CCOc1cccc(C(=O)O)c1
Second: CC(=O)c1cccc(Br)c1
The melting point of the first is higher: 136 to 137 °C for the first, 7.5 to 8 °C for the second.

First: O=Cc1cc2c(cc1[N+](=O)[O-])OCO2
Second: O=C1NC(=O)c2c1cccc2[N+](=O)[O-]
The melting point of the first is lower: 93.5 to 95 °C for the first, 214 to 219 °C for the second.

Compared with `O=C1CCCCCN1`, `O=C1CCCc2ccccc21` is lower in melting point: 69 to 70 °C for the first, 7 to 8 °C for the second.

Compared with `CC12CCC3C(CCC4(C)CC5(CCC34C)OCCO5)C1CCC2=O` (configuration not stated), `CCCCCC1CCCCC1` is lower in melting point: 158 to 159 °C for the first, -58 to -57.5 °C for the second.

First: c1ccc2c(c1)Oc1ccccc1S2
Second: c1ccc2c(c1)sc1ccccc12
The melting point of the first is lower: 57 to 59.5 °C for the first, 97 to 99 °C for the second.

Compared with `Cc1ccc2c(c1[N+](=O)[O-])C(=O)c1ccccc1C2=O`, `CN1C(=C(O)Nc2ccccn2)C(=O)c2ccccc2S1(=O)=O` is lower in melting point: 268 to 270 °C for the first, 198 to 199 °C for the second.

First: Cc1cc(C)c(C)c(Br)c1C
Second: Cc1c(C)c(C)c(Br)c(C)c1C
The melting point of the first is lower: 56 to 60 °C for the first, 162 to 165 °C for the second.

Compared with `O=C(O)[C@H](O)[C@@H](O)C(=O)O`, `O=C(O)CCSCCC(=O)O` is lower in melting point: 169 to 171 °C for the first, 129 to 131 °C for the second.

Compared with `CC(=O)Nc1ccc(C)cc1`, `CC(=O)Nc1cccc(O)c1` is lower in melting point: 149 to 152 °C for the first, 146 to 148 °C for the second.

First: N#Cc1c(Cl)cccc1Cl
Second: COc1cccc(Cl)c1Cl
The melting point of the first is higher: 143 to 145 °C for the first, 31 to 32 °C for the second.

First: CCOC(=O)CCCCCCCCC(=O)OCC
Second: CCCCCCCCCCCCCC(=O)O
The melting point of the first is lower: 2 to 5 °C for the first, 53.9 to 55.1 °C for the second.

Compared with `O=C1C=CCO1`, `O=Cc1ccccc1F` is lower in melting point: 4 to 4.5 °C for the first, -45 to -44.5 °C for the second.

Compared with `CN(C)c1ccc(N(C)C)cc1`, `CN(C)c1ccc(C=O)cc1` is higher in melting point: 50 to 51 °C for the first, 74 to 75 °C for the second.

Compared with `CC1CNCC(C)O1` (configuration not stated), `NCC1CCNCC1` is higher in melting point: -88 to -85 °C for the first, 24 to 25 °C for the second.

First: O=C(CCC(=O)c1ccccc1)c1ccccc1
Second: O=C(O)c1ccccc1-c1ccccc1
The melting point of the first is higher: 144 to 146 °C for the first, 112 to 115 °C for the second.

First: c1ccc(OP(Oc2ccccc2)Oc2ccccc2)cc1
Second: O=P(O)(Oc1ccccc1)Oc1ccccc1
The melting point of the first is lower: 23 to 25 °C for the first, 66 to 67.5 °C for the second.

First: COc1ccc2c(c1)c(CC(=O)O)c(C)n2C(=O)c1ccc(Cl)cc1
Second: O=C(C=Cc1ccccc1)c1ccc(Cl)cc1
The melting point of the first is higher: 158 to 160 °C for the first, 96 to 99 °C for the second.

First: c1ccc(-c2cnc(-c3ccccc3)o2)cc1
Second: c1ccc(-c2ccc(-c3ccccc3)o2)cc1
The melting point of the first is lower: 72 to 74 °C for the first, 88 to 91 °C for the second.

First: CN1CCN(CCCN2c3ccccc3Sc3ccccc32)CC1
Second: C=Cn1c2ccccc2c2ccccc21
The melting point of the first is lower: 52 to 53 °C for the first, 63 to 65 °C for the second.

Compared with `Cc1ccc(-c2cc(C(F)(F)F)nn2-c2ccc(S(N)(=O)=O)cc2)cc1`, `CN(C)c1cccc2c(S(N)(=O)=O)cccc12` is higher in melting point: 158 °C for the first, 220 °C for the second.

Compared with `Oc1cccc(Nc2ccccc2)c1`, `O=c1cc(-c2ccccc2)oc2cc(O)cc(O)c12` is higher in melting point: 80 to 81.5 °C for the first, 286 to 287 °C for the second.

Compared with `Nc1cccc(N)n1`, `Nc1ccc([N+](=O)[O-])cn1` is higher in melting point: 120 to 122 °C for the first, 187 to 188 °C for the second.

`CCCC=O` and `CC(=O)OCC(C)C` cannot be ordered by melting point: -99 to -96 °C for the first, -99 to -98.8 °C for the second.

First: CCCCCCCCCCCCCCCCCC(=O)O
Second: CCCCCCCCCCCCCCCCCO
The melting point of the first is higher: 68 to 71 °C for the first, 53.8 to 58 °C for the second.

First: BrCCCCCCCCCCCCBr
Second: CCCCCCCCCCCCCCCCCCC
The melting point of the first is higher: 40 to 41 °C for the first, 32 to 33 °C for the second.

First: CC(=O)NS(=O)(=O)c1ccc(N)cc1
Second: N#CCc1ccc(N)cc1
The melting point of the first is higher: 182 to 183 °C for the first, 44 to 46 °C for the second.

Compared with `NC(=O)c1ccccc1F`, `NC(=O)c1c(F)cccc1F` is higher in melting point: 116 to 118 °C for the first, 146 to 147 °C for the second.

First: NCCC(=O)O
Second: O=C(O)CO
The melting point of the first is higher: 196 to 200 °C for the first, 77 to 80 °C for the second.

First: O=C(O)c1c(F)ccc(F)c1F
Second: Cc1ccc(C(=O)O)c(O)c1
The melting point of the first is lower: 130 to 131 °C for the first, 177 to 178 °C for the second.

Compared with `CCCCCCCCC(C)C`, `CCCCCCCCCCl` is higher in melting point: -49 to -48.9 °C for the first, -39.4 to -39 °C for the second.

Compared with `CNCCO`, `CNC(=O)c1ccccc1` is higher in melting point: -5 to -4.5 °C for the first, 79 to 82 °C for the second.

First: CC(C)(C)c1ccccc1
Second: C/C=C/c1ccccc1
The melting point of the first is lower: -59.5 to -57.8 °C for the first, -29.3 to -27.1 °C for the second.

First: O=[N+]([O-])c1ccc(C=NO)cc1
Second: O=C(O)c1cc([N+](=O)[O-])ccc1O
The melting point of the first is lower: 128 to 130 °C for the first, 230 to 232 °C for the second.

Compared with `O=Cc1ccccc1C=O`, `Clc1ccccc1I` is lower in melting point: 56 to 56.5 °C for the first, 0.7 to 1 °C for the second.

First: C=Cc1ccc(Br)cc1
Second: O=C(O)c1cc(Br)ccc1Br
The melting point of the first is lower: 5 to 7.7 °C for the first, 155 to 157 °C for the second.

First: COc1ccc(C(=O)O)c(OC)c1OC
Second: COc1cccc(C(=O)O)c1O
The melting point of the first is lower: 100 to 101 °C for the first, 151 to 152 °C for the second.

Compared with `c1csc(-c2ccc(-c3cccs3)s2)c1`, `N#Cc1c[nH]c2ccccc12` is higher in melting point: 92 to 93.5 °C for the first, 180 °C for the second.

First: Clc1ccc(Cl)nc1
Second: Clc1ccc(Cl)s1
The melting point of the first is higher: 60.5 to 61 °C for the first, -41 to -40.5 °C for the second.

First: O=C(Cl)c1ccco1
Second: O=C(CCl)c1ccc(Cl)cc1
The melting point of the first is lower: -2 to -1 °C for the first, 101 to 102 °C for the second.

Compared with `ClC(Cl)Cl`, `ClC=C(Cl)Cl` is lower in melting point: -63.6 to -63 °C for the first, -85 to -84.7 °C for the second.

First: CC#CC
Second: N#Cc1cccc(C#N)c1
The melting point of the first is lower: -32.3 to -32 °C for the first, 161 to 162 °C for the second.

First: CCCCCCCCCCI
Second: ClCCCCCCl
The melting point of the first is higher: -16.3 to -16 °C for the first, -73 to -72 °C for the second.

First: CCc1cc(C)cc(CC)c1
Second: Cc1ccc(O)cc1Cl
The melting point of the first is lower: -74.1 to -74 °C for the first, 52 to 55.5 °C for the second.

First: Brc1sc(Br)c(Br)c1Br
Second: O=[N+]([O-])c1c(Cl)c(Cl)c(Cl)c(Cl)c1Cl
The melting point of the first is lower: 115 to 118 °C for the first, 142 to 144 °C for the second.

First: Oc1ccc2c(c1)CCCC2
Second: CNC(=O)Oc1cccc2c1OC(C)(C)C2
The melting point of the first is lower: 57 to 62 °C for the first, 151 to 152 °C for the second.

For `O=C(O)CCCCCBr`, the melting point was 34 to 35 °C.
